According to patent publication US11613527B2, “Enzyme inhibitors” (KalVista Pharmaceuticals Limited, priority 2019, dated 2023):

Experiments:
Type in all cases: biochemical
[1] = biological target: Human FXIa (Homo sapiens (Human), UniProt P03951); assay: Determination of the % inhibition for FXIa (fluorogenic substrate Z-Gly-Pro-Arg-AFC; 40 μM or IC50)
Description: Selected compounds were further screened for inhibitory activity against the related enzyme FXIa. The ability of the compounds of formula (I) to inhibit FXIa may be determined using the following biological assay:
Determination of the % Inhibition for FXIa
(§1) FXIa inhibitory activity in vitro was determined using standard published methods (see e.g. Johansen et al., Int. J. Tiss. Reac. 1986, 8, 185; Shori et al., Biochem. Pharmacol., 1992, 43, 1209; Sturzebecher et al., Biol. Chem. Hoppe-Seyler, 1992, 373, 1025). Human FXIa (Enzyme Research Laboratories) was incubated at 25° C. with the fluorogenic substrate Z-Gly-Pro-Arg-AFC and 40 μM of the test compound (or alternatively at various concentrations of the test compound in order to determine IC50). Residual enzyme activity (initial rate of reaction) was determined by measuring the change in optical absorbance at 410 nm and the IC50 value for the test compound was determined.

[2] = biological target: Human plasma kallikrein (Homo sapiens (Human), UniProt P03952); assay: Determination of the IC50 for plasma kallikrein (fluorogenic substrate H-DPro-Phe-Arg-AFC); details: class symbols A-D, read-out: IC50 (human PKal)
Chain of Human plasma kallikrein (P03952 391-638): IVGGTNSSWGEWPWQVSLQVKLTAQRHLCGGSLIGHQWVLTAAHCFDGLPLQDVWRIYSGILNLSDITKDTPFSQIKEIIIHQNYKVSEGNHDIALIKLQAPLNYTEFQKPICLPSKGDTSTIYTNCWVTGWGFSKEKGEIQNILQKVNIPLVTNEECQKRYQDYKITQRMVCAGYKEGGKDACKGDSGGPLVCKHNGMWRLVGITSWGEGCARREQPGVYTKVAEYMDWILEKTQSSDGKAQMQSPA
Chain of Human plasma kallikrein (P03952 20-390 partner): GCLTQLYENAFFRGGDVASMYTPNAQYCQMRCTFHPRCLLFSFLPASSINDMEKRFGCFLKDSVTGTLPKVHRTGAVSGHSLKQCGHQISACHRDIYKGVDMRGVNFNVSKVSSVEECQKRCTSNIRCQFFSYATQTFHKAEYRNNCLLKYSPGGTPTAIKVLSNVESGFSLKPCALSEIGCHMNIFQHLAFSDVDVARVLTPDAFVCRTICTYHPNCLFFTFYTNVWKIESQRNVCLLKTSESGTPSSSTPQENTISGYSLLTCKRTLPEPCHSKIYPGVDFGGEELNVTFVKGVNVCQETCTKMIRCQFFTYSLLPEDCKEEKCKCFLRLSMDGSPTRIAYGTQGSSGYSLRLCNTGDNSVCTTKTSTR
Description: The ability of the compounds of formula (I) to inhibit plasma kallikrein may be determined using the following biological assay:
Determination of the IC50 for Plasma Kallikrein
as §1, with “Plasma kallikrein” for “FXIa”, “plasma kallikrein (Protogen)” for “FXIa (Enzyme Research Laboratories)”, “H-DPro-Phe-Arg-AFC” for “Z-Gly-Pro-Arg-AFC”, “and” for “and 40 μM of the test compound (or alternatively at”, “compound.” for “compound in order to determine IC50).”

[3] = biological target: Human KLK1 (Homo sapiens (Human), UniProt P06870); assay: Determination of the IC50 for KLK1 (fluorogenic substrate H-DVal-Leu-Arg-AFC)
Chain of Human KLK1 (P06870 25-262): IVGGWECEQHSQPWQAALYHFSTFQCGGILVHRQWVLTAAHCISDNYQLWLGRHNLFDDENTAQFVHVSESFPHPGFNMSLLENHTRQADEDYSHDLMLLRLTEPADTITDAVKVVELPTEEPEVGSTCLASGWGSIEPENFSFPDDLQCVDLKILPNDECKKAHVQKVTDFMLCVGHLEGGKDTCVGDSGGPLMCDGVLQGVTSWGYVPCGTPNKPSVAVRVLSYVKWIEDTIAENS
Description: Selected compounds were further screened for inhibitory activity against the related enzyme KLK1. The ability of the compounds of formula (I) to inhibit KLK1 may be determined using the following biological assay:
Determination of the IC50 for KLK1
as §1, with “KLK1” for “FXIa”, “KLK1 (Callbiochem)” for “FXIa (Enzyme Research Laboratories)”, “H-DVal-Leu-Arg-AFC” for “Z-Gly-Pro-Arg-AFC”, “and” for “and 40 μM of the test compound (or alternatively at”, “compound.” for “compound in order to determine IC50).”

Chain of Human FXIa (P03951 388-625): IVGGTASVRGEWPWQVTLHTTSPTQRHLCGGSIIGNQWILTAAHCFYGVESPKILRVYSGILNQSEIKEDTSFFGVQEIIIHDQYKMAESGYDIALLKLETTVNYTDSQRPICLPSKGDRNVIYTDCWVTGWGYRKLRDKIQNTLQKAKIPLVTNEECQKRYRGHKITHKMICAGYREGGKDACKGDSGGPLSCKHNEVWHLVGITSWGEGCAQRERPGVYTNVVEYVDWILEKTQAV
Chain of Human FXIa (P03951 19-387 partner): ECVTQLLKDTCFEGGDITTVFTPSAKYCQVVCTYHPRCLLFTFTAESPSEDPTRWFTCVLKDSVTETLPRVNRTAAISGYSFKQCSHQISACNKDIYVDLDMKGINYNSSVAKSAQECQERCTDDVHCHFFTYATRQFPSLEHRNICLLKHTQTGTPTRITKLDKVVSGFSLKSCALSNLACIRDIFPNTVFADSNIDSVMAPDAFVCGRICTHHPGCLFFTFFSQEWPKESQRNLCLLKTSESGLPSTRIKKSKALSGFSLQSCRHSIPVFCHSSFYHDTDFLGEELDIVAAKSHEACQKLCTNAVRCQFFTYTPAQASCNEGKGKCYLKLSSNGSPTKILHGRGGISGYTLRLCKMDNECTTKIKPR

Structure (SMILES)	IC50 [1] [µM]	IC50 [2] [µM]	IC50 [3] [µM]
COc1ccc(-n2cc(C)nn2)c(CNC(=O)c2cn(Cc3ccc4c(c3)CN(C(C)C)C4)c(C3CC3)n2)c1F [Example 150, 2-cyclopropyl-N-{[2-fluoro-3-methoxy-6-(4-methyl-1,2,3-triazol-1-yl)phenyl]methyl}-1-[(2-isopropyl-1,3-dihydroisoindol-5-yl)methyl]imidazole-4-carboxamide]	> 40	0.01 to 0.03	> 40
COCc1nn(Cc2cnc3c(c2)CCN(CC(F)F)C3)cc1C(=O)NCc1c(-n2cc(C)nn2)ccc(OC)c1F [Example 115, 1-{[7-(2,2-difluoroethyl)-6,8-dihydro-5H-1,7-naphthyridin-3-yl]methyl}-N-{[2-fluoro-3-methoxy-6-(4-methyl-1,2,3-triazol-1-yl)phenyl]methyl}-3-(methoxymethyl)pyrazole-4-carboxamide]	> 4	0.01 to 0.03	> 4
COc1ccc(-n2cc(C)nn2)c(CNC(=O)c2cnn(Cc3ccc4c(c3)CN(C)CC4)c2)c1F [Example 3, N-{[2-fluoro-3-methoxy-6-(4-methyl-1,2,3-triazol-1-yl)phenyl]methyl}-1-[(2-methyl-3,4-dihydro-1H-isoquinolin-7-yl)methyl]pyrazole-4-carboxamide]	> 40	< 0.01	> 40
COCc1nn(Cc2ccc3c(c2)CN(C2CC2)CC3)cc1C(=O)NCc1c(-n2cnc(C(F)(F)F)n2)ccc(OC)c1F [Example 20, 1-[(2-cyclopropyl-3,4-dihydro-1H-isoquinolin-7-yl)methyl]-N-({2-fluoro-3-methoxy-6-[3-(trifluoromethyl)-1,2,4-triazol-1-yl]phenyl}methyl)-3-(methoxymethyl)pyrazole-4-carboxamide]	> 40	0.01 to 0.03	> 40
COCc1nn(Cc2ccc3c(c2)CN(C(C)C)C3)cc1C(=O)NCc1c(-n2cnc(C(F)F)n2)ccc(OC)c1F [Example 59, N-({6-[3-(difluoromethyl)-1,2,4-triazol-1-yl]-2-fluoro-3-methoxyphenyl}methyl)-1-[(2-isopropyl-1,3-dihydroisoindol-5-yl)methyl]-3-(methoxymethyl)pyrazole-4-carboxamide]	> 40	< 0.01	> 40
COCc1nn(Cc2ccc3c(c2)C(C)(C)N(C)C3)cc1C(=O)NCc1c(-n2cc(C)nn2)ccc(OC)c1F [Example 124, N-{[2-fluoro-3-methoxy-6-(4-methyl-1,2,3-triazol-1-yl)phenyl]methyl}-3-(methoxymethyl)-1-[(2,3,3-trimethyl-1H-isoindol-5-yl)methyl]pyrazole-4-carboxamide]	> 40	0.03 to 0.1	> 40
COCc1nn(Cc2ccc3c(c2)CN(C)CC3)cc1C(=O)NCc1c(-n2cnc(C(F)F)n2)ccc(C(C)(F)F)c1F [Example 157, N-{[3-(1,1-difluoroethyl)-6-[3-(difluoromethyl)-1,2,4-triazol-1-yl]-2-fluorophenyl]methyl}-3-(methoxymethyl)-1-[(2-methyl-3,4-dihydro-1H-isoquinolin-7-yl)methyl]pyrazole-4-carboxamide]	> 40	0.1 to 1	> 40
COCc1nn(Cc2ccc3c(c2)CNC3)cc1C(=O)NCc1c(-n2cc(C)nn2)ccc(OC)c1F [Example 53, 1-(2,3-dihydro-1H-isoindol-5-ylmethyl)-N-{[2-fluoro-3-methoxy-6-(4-methyl-1,2,3-triazol-1-yl)phenyl]methyl}-3-(methoxymethyl)pyrazole-4-carboxamide]	> 4	0.03 to 0.1	> 4
COCc1nn(Cc2ccc3c(c2)CN(C(C)C)C3)cc1C(=O)NCc1c(-n2cnc(C(F)(F)F)n2)ccc(OC)c1F [Example 60, N-({2-fluoro-3-methoxy-6-[3-(trifluoromethyl)-1,2,4-triazol-1-yl]phenyl}methyl)-1-[(2-isopropyl-1,3-dihydroisoindol-5-yl)methyl]-3-(methoxymethyl)pyrazole-4-carboxamide]	> 40	< 0.01	> 40
COCc1nn(Cc2ccc3c(c2)CNCCO3)cc1C(=O)NCc1c(-n2cc(C)nn2)ccc(OC)c1F [Example 110, N-{[2-fluoro-3-methoxy-6-(4-methyl-1,2,3-triazol-1-yl)phenyl]methyl}-3-(methoxymethyl)-1-(2,3,4,5-tetrahydro-1,4-benzoxazepin-7-ylmethyl)pyrazole-4-carboxamide]	> 40	0.1 to 1	> 40
COCc1nn(Cc2cnc3c(c2Cl)CCN(C)C3)cc1C(=O)NCc1c(-n2cc(C)nn2)ccc(OC)c1F [Example 64, 1-[(4-chloro-7-methyl-6,8-dihydro-5H-1,7-naphthyridin-3-yl)methyl]-N-{[2-fluoro-3-methoxy-6-(4-methyl-1,2,3-triazol-1-yl)phenyl]methyl}-3-(methoxymethyl)pyrazole-4-carboxamide]	> 40	0.03 to 0.1	> 40

Second part, the molecule after the results:

IC50 [1] [µM]	IC50 [2] [µM]	IC50 [3] [µM]	Structure (SMILES)
> 40	0.03 to 0.1	> 40	COCc1nn(Cc2ccc3c(c2)CN(C)CC3)cc1C(=O)NCc1c(-n2ccc(C3CC3)n2)ccc(OC)c1F [Example 9, N-{[6-(3-cyclopropylpyrazol-1-yl)-2-fluoro-3-methoxyphenyl]methyl}-3-(methoxymethyl)-1-[(2-methyl-3,4-dihydro-1H-isoquinolin-7-yl)methyl]pyrazole-4-carboxamide]
36.8	< 0.01	> 40	COCc1nn(Cc2ccc3c(c2)CN(C2CC2)CC3)cc1C(=O)NCc1c(-n2ccc(C#N)n2)ccc(OC)c1F [Example 21, N-{[6-(3-cyanopyrazol-1-yl)-2-fluoro-3-methoxyphenyl]methyl}-1-[(2-cyclopropyl-3,4-dihydro-1H-isoquinolin-7-yl)methyl]-3-(methoxymethyl)pyrazole-4-carboxamide]
34.2	< 0.01	> 40	COCc1nn(Cc2cnc3c(c2)CCN(C)C3)cc1C(=O)NCc1c(-n2cc(C)nn2)ccc(OC)c1F [Example 102, N-{[2-fluoro-3-methoxy-6-(4-methyl-1,2,3-triazol-1-yl)phenyl]methyl}-3-(methoxymethyl)-1-[(7-methyl-6,8-dihydro-5H-1,7-naphthyridin-3-yl)methyl]pyrazole-4-carboxamide]
> 40	< 0.01	> 40	COCc1nn(Cc2ccc3c(c2)CN(C)CC3)cc1C(=O)NCc1c(-n2nc(C)nc2C)ccc(OC)c1F [Example 29, N-{[6-(dimethyl-1,2,4-triazol-1-yl)-2-fluoro-3-methoxyphenyl]methyl}-3-(methoxymethyl)-1-[(2-methyl-3,4-dihydro-1H-isoquinolin-7-yl)methyl]pyrazole-4-carboxamide]
> 40	0.1 to 1	> 40	COCc1nn(Cc2ccc3c(c2)CN(C)CCO3)cc1C(=O)NCc1c(-n2cc(C)nn2)ccc(OC)c1F [Example 108, N-{[2-fluoro-3-methoxy-6-(4-methyl-1,2,3-triazol-1-yl)phenyl]methyl}-3-(methoxymethyl)-1-[(4-methyl-3,5-dihydro-2H-1,4-benzoxazepin-7-yl)methyl]pyrazole-4-carboxamide]
28.8	< 0.01	> 40	COCc1nn(Cc2ccc3c(c2)CN(C)C3)cc1C(=O)NCc1c(-n2cnc(C(F)F)n2)ccc(OC)c1F [Example 57, N-({6-[3-(difluoromethyl)-1,2,4-triazol-1-yl]-2-fluoro-3-methoxyphenyl}methyl)-3-(methoxymethyl)-1-[(2-methyl-1,3-dihydroisoindol-5-yl)methyl]pyrazole-4-carboxamide]
> 40	< 0.01	> 40	COCc1nn(Cc2ccc3c(c2)CN(C(C)C)CC3)cc1C(=O)NCc1c(-n2cc(C)nn2)ccc(OC)c1F [Example 17, N-{[2-fluoro-3-methoxy-6-(4-methyl-1,2,3-triazol-1-yl)phenyl]methyl}-1-[(2-isopropyl-3,4-dihydro-1H-isoquinolin-7-yl)methyl]-3-(methoxymethyl)pyrazole-4-carboxamide]
